# Results: ChEMBL document CHEMBL1681632, “2-(4-carbonylphenyl)benzoxazole inhibitors of CETP: scaffold design and advancement in HDLc-raising efficacy” (Bioorg Med Chem Lett, 2011)
# Target: T1, Cholesteryl ester transfer protein (Homo sapiens, UniProt P11597)
# T1 sequence (P11597 whole entry): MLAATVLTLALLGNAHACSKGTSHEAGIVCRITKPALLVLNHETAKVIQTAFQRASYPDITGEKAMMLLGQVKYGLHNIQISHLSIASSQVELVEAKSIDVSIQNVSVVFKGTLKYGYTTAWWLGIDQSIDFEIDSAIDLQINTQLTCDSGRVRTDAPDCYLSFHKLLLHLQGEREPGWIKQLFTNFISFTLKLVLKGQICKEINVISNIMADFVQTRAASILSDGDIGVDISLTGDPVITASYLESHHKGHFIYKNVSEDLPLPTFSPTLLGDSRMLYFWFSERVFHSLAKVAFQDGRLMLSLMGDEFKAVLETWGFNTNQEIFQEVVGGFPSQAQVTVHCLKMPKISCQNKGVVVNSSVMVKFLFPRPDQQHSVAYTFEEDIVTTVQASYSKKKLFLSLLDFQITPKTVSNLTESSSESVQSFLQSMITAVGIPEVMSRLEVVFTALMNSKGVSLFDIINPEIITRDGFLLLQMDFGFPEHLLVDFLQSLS
# Experiment: Inhibition of CETP
row,IC50,Structure (SMILES)
1,37 nM,CC(C)c1cc(C#N)cc2nc(-c3ccc(C(=O)NCC4CCN(c5cccc(C(F)(F)F)n5)CC4)cc3)oc12
2,43 nM,CC(C)c1cc(C#N)cc2nc(-c3ccc(C(=O)NCC4CCN(c5ccc(-c6ccccc6)cn5)CC4)cc3)oc12
3,306 nM,COC(=O)c1cccc(N2CCC(CNC(=O)c3ccc(-c4nc5cc(C#N)cc(C(C)C)c5o4)cc3)CC2)n1
4,19 nM,CC(C)c1ccccc1-c1ccc(N2CCC(CNC(=O)c3ccc(-c4nc5cc(C#N)cc(C(C)C)c5o4)cc3)CC2)nc1
5,24 nM,COc1cc(F)c(C(C)C)cc1-c1ccc(N2CCC(CNC(=O)c3ccc(-c4nc5cc(C#N)cc(C(C)C)c5o4)cc3)CC2)nc1
6,223 nM,CC(C)c1cc(C#N)cc2nc(-c3ccc(C(=O)NCC4CCN(c5ccc(Br)cn5)CC4)cc3)oc12
7,300 nM,Cc1cc(C#N)cc2nc(-c3ccc(C(=O)NCC4CCN(c5ccc(C(F)(F)F)cc5)CC4)cc3)oc12
8,3190 nM,N#Cc1cc(C(F)(F)F)c2oc(-c3ccc(C(=O)NCC4CCN(c5ccc(C(F)(F)F)cn5)CC4)cc3)nc2c1
9,47 nM,COc1cccc(Cl)c1-c1ccc(N2CCC(CNC(=O)c3ccc(-c4nc5cc(C#N)cc(C(C)C)c5o4)cc3)CC2)nc1
10,8940 nM,COC(Cc1ccc(-c2nc3cc(C#N)cc(C)c3o2)cc1)CN1CCN(c2ccc(C(F)(F)F)cc2)CC1 (stereo not given)
11,13 nM,CC(C)Oc1ccc(F)cc1-c1ccc(N2CCC(CNC(=O)c3ccc(-c4nc5cc(C#N)cc(C(C)C)c5o4)cc3)CC2)nc1
12,2250 nM,Cc1cc(C#N)cc2nc(-c3ccc(C(O)CCN4CCN(c5ccc(C(F)(F)F)cc5)CC4)cc3)oc12 (stereo not given)
13,> 10000 nM,CC(C)c1cc(C#N)cc2nc(-c3ccc(C(=O)NCC4CCN(c5cccc(C(=O)O)n5)CC4)cc3)oc12
14,131 nM,C=C(C)c1cc(C#N)cc2nc(-c3ccc(C(=O)NCC4CCN(c5ccc(C(F)(F)F)cn5)CC4)cc3)oc12
15,2610 nM,Cc1cc(C#N)cc2nc(-c3ccc(C(=O)N(C)CC4CCN(c5ccc(C(F)(F)F)cc5)CC4)cc3)oc12
16,243 nM,N#Cc1cc(C2CC2)c2oc(-c3ccc(C(=O)NCC4CCN(c5ccc(C(F)(F)F)cn5)CC4)cc3)nc2c1
17,198 nM,CC(C)(C)c1cc(C#N)cc2nc(-c3ccc(C(=O)NCC4CCN(c5ccc(C(F)(F)F)cn5)CC4)cc3)oc12
18,11600 nM,Cc1cc(C#N)cc2nc(-c3ccc(C(=O)NCCC4CCN(c5ccc(C(F)(F)F)cc5)CC4)cc3)oc12
19,22 nM,CC(C)c1cc(C#N)cc2nc(-c3ccc(C(=O)NCC4CCN(c5nccc(C(F)(F)F)n5)CC4)cc3)oc12
20,2170 nM,Cc1cc(C#N)cc2nc(-c3ccc(C#CCN4CCN(c5ccc(C(F)(F)F)cc5)CC4)cc3)oc12
21,114 nM,CC(C)c1cc(C#N)cc2nc(-c3ccc(C(=O)NCC4CCN(c5ccccn5)CC4)cc3)oc12
22,413 nM,CC(C)c1cc(C#N)cc2nc(-c3ccc(C(=O)NCC4CCN(c5ccc(-c6cc(C(F)(F)F)ccc6OCc6ccccc6)cn5)CC4)cc3)oc12

row,IC50,Structure (SMILES)
1,5740 nM,Cc1cc(C#N)cc2nc(-c3ccc(CC(=O)CN4CCN(c5ccc(C(F)(F)F)cc5)CC4)cc3)oc12
2,> 10000 nM,CC(C)c1cc(C#N)cc2nc(-c3ccc(C(=O)NCC4CCN(c5ccc([N+](=O)[O-])cn5)CC4)cc3)oc12
3,110 nM,COc1cccc(N2CCC(CNC(=O)c3ccc(-c4nc5cc(C#N)cc(C(C)C)c5o4)cc3)CC2)n1
4,48 nM,Cc1ccc(-c2ccc(N3CCC(CNC(=O)c4ccc(-c5nc6cc(C#N)cc(C(C)C)c6o5)cc4)CC3)nc2)cc1
5,874 nM,Cc1cc(C#N)cc2nc(-c3ccc(CC(O)CN4CCN(c5ccc(C(F)(F)F)cc5)CC4)cc3)oc12 (stereo not given)
6,39 nM,Cc1cccc(-c2ccc(N3CCC(CNC(=O)c4ccc(-c5nc6cc(C#N)cc(C(C)C)c6o5)cc4)CC3)nc2)c1
7,31 nM,CC(C)COc1ccccc1-c1ccc(N2CCC(CNC(=O)c3ccc(-c4nc5cc(C#N)cc(C(C)C)c5o4)cc3)CC2)nc1
8,18800 nM,Cc1cc(C#N)cc2nc(-c3ccc(NCC(O)CN4CCN(c5ccc(C(F)(F)F)cc5)CC4)cc3)oc12 (stereo not given)
9,40 nM,CC(C)c1cc(C#N)cc2nc(-c3ccc(C(=O)NCC4CCN(c5ccc(C(F)(F)F)cn5)CC4)cc3)oc12
10,29 nM,CC(C)Oc1ccccc1-c1ccc(N2CCC(CNC(=O)c3ccc(-c4nc5cc(C#N)cc(C(C)C)c5o4)cc3)CC2)nc1
11,114 nM,COC(=O)c1ccc(N2CCC(CNC(=O)c3ccc(-c4nc5cc(C#N)cc(C(C)C)c5o4)cc3)CC2)nc1
12,15 nM,Cc1cc(C#N)cc2nc(-c3ccc(NC(=O)CN4CCN(c5ccc(C(F)(F)F)cn5)CC4)cc3)oc12
13,61 nM,CC(C)c1cc(C#N)cc2nc(-c3ccc(C(=O)NCC4CCN(c5cc(C(F)(F)F)ccn5)CC4)cc3)oc12
14,229 nM,C=C(C)c1ccc(N2CCC(CNC(=O)c3ccc(-c4nc5cc(C#N)cc(C(C)C)c5o4)cc3)CC2)nc1
15,4030 nM,Cc1cc(C#N)cc2nc(-c3ccc(C(=O)N4CCN(c5ccc(C(F)(F)F)cc5)CC4)cc3)oc12
16,2740 nM,Cc1cc(C#N)cc2nc(-c3ccc(N4CCC(N5CCN(c6ccc(C(F)(F)F)cc6)CC5)C4=O)cc3)oc12 (stereo not given)
17,2050 nM,Cc1cc(C#N)cc2nc(-c3ccc(C(=O)CCN4CCN(c5ccc(C(F)(F)F)cc5)CC4)cc3)oc12
18,4550 nM,Cc1cc(C#N)cc2nc(-c3ccc(OCCN4CCN(c5ccc(C(F)(F)F)cc5)CC4)cc3)oc12
19,22 nM,Cc1ccc(OC(C)C)c(-c2ccc(N3CCC(CNC(=O)c4ccc(-c5nc6cc(C#N)cc(C(C)C)c6o5)cc4)CC3)nc2)c1
20,975 nM,Cc1cc(C#N)cc2nc(-c3ccc(CCCN4CCN(c5ccc(C(F)(F)F)cc5)CC4)cc3)oc12
21,28 nM,CC(C)Oc1ccc(C(F)(F)F)cc1-c1ccc(N2CCC(CNC(=O)c3ccc(-c4nc5cc(C#N)cc(C(C)C)c5o4)cc3)CC2)nc1

# Test system: Mus musculus
# Experiment: Antiatherogenic activity in transgenic mouse PD model assessed as rise in HDL-cholesterol level at 10 mg/kg
# Type: functional
row,Structure (SMILES),Activity
1,CC(C)c1cc(C#N)cc2nc(-c3ccc(C(=O)NCC4CCN(c5ccc(-c6ccccc6)cn5)CC4)cc3)oc12,22 mg/dL
2,CC(C)Oc1ccc(F)cc1-c1ccc(N2CCC(CNC(=O)c3ccc(-c4nc5cc(C#N)cc(C(C)C)c5o4)cc3)CC2)nc1,24 mg/dL
3,CC(C)c1cc(C#N)cc2nc(-c3ccc(C(=O)NCC4CCN(c5nccc(C(F)(F)F)n5)CC4)cc3)oc12,7 mg/dL
4,Cc1cc(C#N)cc2nc(-c3ccc(NC(=O)CN4CCN(c5ccc(C(F)(F)F)cc5)CC4)cc3)oc12,24 mg/dL
5,CC(C)c1cc(C#N)cc2nc(-c3ccc(C(=O)NCC4CCN(c5ccc(C(F)(F)F)cn5)CC4)cc3)oc12,16 mg/dL
6,Cc1cc(C#N)cc2nc(-c3ccc(NC(=O)CN4CCN(c5ccc(C(F)(F)F)cn5)CC4)cc3)oc12,21 mg/dL
7,Cc1ccc(OC(C)C)c(-c2ccc(N3CCC(CNC(=O)c4ccc(-c5nc6cc(C#N)cc(C(C)C)c6o5)cc4)CC3)nc2)c1,28 mg/dL
